Measurements as given in ChEMBL document CHEMBL3045535, “Evaluation of lufenuron as a chemosterilant against fruit flies of the genus Anastrepha (Diptera: Tephritidae)” (2010).
Calls of active or inactive are those of the source. The rule behind the calls is not given here.

Tests used:
Anastrepha ludens [1] = assay: Effect on fecundity in 7 days old adult female of Anastrepha ludens at 30 mg/g treated with diet after 24 hr in presence of untreated adult male of Anastrepha ludens; type: functional, organism-based
Anastrepha ludens [2] = assay: Reduction of fertility in 7 days old adult of Anastrepha ludens assessed as reduction of egg hatching at 5 mg/g treated with diet measured after 9 days oviposition; type: functional; parameters: scale not given: the % may be the effect or the level left
Anastrepha obliqua [3] = assay: Effect on fecundity in 7 days old adult of Anastrepha obliqua at 0.1 to 30 mg/g treated with diet after 24 hr; type: functional, organism-based
Anastrepha obliqua [4] = assay: Reduction of fertility in 7 days old adult of Anastrepha obliqua assessed as reduction of egg hatching at 5 mg/g treated with diet measured after 7 days oviposition; type: functional; parameters: scale not given: the % may be the effect or the level left
Anastrepha obliqua [5] = assay: Reduction of fertility in 7 days old adult of Anastrepha obliqua assessed as reduction of egg hatching at 5 mg/g treated with diet measured after 5 days oviposition; type: functional; parameters: scale not given: the % may be the effect or the level left
Anastrepha ludens [6] = assay: Reduction of fertility in 7 days old adult of Anastrepha ludens assessed as reduction of egg hatching at 0.5 mg/g treated with diet measured after 7 days oviposition; type: functional; parameters: scale not given: the % may be the effect or the level left
Anastrepha ludens [7] = assay: Reduction of fertility in 7 days old adult of Anastrepha ludens assessed as reduction of egg hatching at 0.5 mg/g treated with diet measured after 5 days oviposition; type: functional; parameters: scale not given: the % may be the effect or the level left
Anastrepha serpentina [8] = assay: Reduction of fertility in 7 days old adult of Anastrepha serpentina assessed as reduction of egg hatching at 0.1 mg/g treated with diet measured after 11 days oviposition; type: functional; parameters: scale not given: the % may be the effect or the level left
Anastrepha serpentina [9] = assay: Reduction of fertility in 7 days old adult of Anastrepha serpentina assessed as reduction of egg hatching at 0.1 mg/g treated with diet measured after 1 day oviposition; type: functional; parameters: scale not given: the % may be the effect or the level left
Anastrepha obliqua [10] = assay: Reduction of fertility in 7 days old adult of Anastrepha obliqua assessed as reduction of egg hatching at 30 mg/g treated with diet measured after 11 days oviposition; type: functional; parameters: scale not given: the % may be the effect or the level left
Anastrepha obliqua [11] = assay: Reduction of fertility in 7 days old adult of Anastrepha obliqua assessed as reduction of egg hatching at 30 mg/g treated with diet measured after 5 days oviposition; type: functional; parameters: scale not given: the % may be the effect or the level left
Anastrepha obliqua [12] = assay: Reduction of fertility in 7 days old adult of Anastrepha obliqua assessed as reduction of egg hatching at 10 mg/g treated with diet measured after 11 days oviposition; type: functional; parameters: scale not given: the % may be the effect or the level left
Anastrepha obliqua [13] = assay: Reduction of fertility in 7 days old adult of Anastrepha obliqua assessed as reduction of egg hatching at 10 mg/g treated with diet measured after 7 days oviposition; type: functional; parameters: scale not given: the % may be the effect or the level left
Anastrepha obliqua [14] = assay: Reduction of fertility in 7 days old adult of Anastrepha obliqua assessed as reduction of egg hatching at 0.5 mg/g treated with diet measured after 1 day oviposition; type: functional; parameters: scale not given: the % may be the effect or the level left
Anastrepha obliqua [15] = assay: Reduction of fertility in 7 days old adult of Anastrepha obliqua assessed as reduction of egg hatching at 0.5 mg/g treated with diet measured after 9 days oviposition; type: functional; parameters: scale not given: the % may be the effect or the level left
Anastrepha obliqua [16] = assay: Reduction of fertility in 7 days old adult of Anastrepha obliqua assessed as reduction of egg hatching at 0.5 mg/g treated with diet measured after 5 days oviposition; type: functional; parameters: scale not given: the % may be the effect or the level left
Anastrepha obliqua [17] = assay: Reduction of fertility in 7 days old adult of Anastrepha obliqua assessed as reduction of egg hatching at 0.1 mg/g treated with diet measured after 7 days oviposition; type: functional; parameters: scale not given: the % may be the effect or the level left
Anastrepha obliqua [18] = assay: Reduction of fertility in 7 days old adult of Anastrepha obliqua assessed as reduction of egg hatching at 0.1 mg/g treated with diet measured after 1 day oviposition; type: functional; parameters: scale not given: the % may be the effect or the level left
Anastrepha ludens [19] = assay: Reduction of fertility in 7 days old adult of Anastrepha ludens assessed as reduction of egg hatching at 30 mg/g treated with diet measured after 3 days oviposition; type: functional; parameters: scale not given: the % may be the effect or the level left
Anastrepha striata [20] = assay: Reduction of fertility in 7 days old adult of Anastrepha striata assessed as reduction of egg hatching at 1 mg/g treated with diet measured after 11 days oviposition; type: functional; parameters: scale not given: the % may be the effect or the level left
Anastrepha striata [21] = assay: Reduction of fertility in 7 days old adult of Anastrepha striata assessed as reduction of egg hatching at 1 mg/g treated with diet measured after 9 days oviposition; type: functional; parameters: scale not given: the % may be the effect or the level left
Anastrepha striata [22] = assay: Reduction of fertility in 7 days old adult of Anastrepha striata assessed as reduction of egg hatching at 1 mg/g treated with diet measured after 7 days oviposition; type: functional; parameters: scale not given: the % may be the effect or the level left
Anastrepha striata [23] = assay: Reduction of fertility in 7 days old adult of Anastrepha striata assessed as reduction of egg hatching at 1 mg/g treated with diet measured after 5 days oviposition; type: functional; parameters: scale not given: the % may be the effect or the level left
Anastrepha striata [24] = assay: Reduction of fertility in 7 days old adult of Anastrepha striata assessed as reduction of egg hatching at 1 mg/g treated with diet measured after 1 day oviposition; type: functional; parameters: scale not given: the % may be the effect or the level left
Anastrepha striata [25] = assay: Reduction of fertility in 7 days old adult of Anastrepha striata assessed as reduction of egg hatching at 0.5 mg/g treated with diet measured after 3 days oviposition; type: functional; parameters: scale not given: the % may be the effect or the level left
Anastrepha striata [26] = assay: Reduction of fertility in 7 days old adult of Anastrepha striata assessed as reduction of egg hatching at 0.1 mg/g treated with diet measured after 3 days oviposition; type: functional; parameters: scale not given: the % may be the effect or the level left
Anastrepha serpentina [27] = assay: Reduction of fertility in 7 days old adult of Anastrepha serpentina assessed as reduction of egg hatching at 10 mg/g treated with diet measured after 9 days oviposition; type: functional; parameters: scale not given: the % may be the effect or the level left
Anastrepha serpentina [28] = assay: Reduction of fertility in 7 days old adult of Anastrepha serpentina assessed as reduction of egg hatching at 10 mg/g treated with diet measured after 1 day oviposition; type: functional; parameters: scale not given: the % may be the effect or the level left
Anastrepha serpentina [29] = assay: Reduction of fertility in 7 days old adult of Anastrepha serpentina assessed as reduction of egg hatching at 5 mg/g treated with diet measured after 11 days oviposition; type: functional; parameters: scale not given: the % may be the effect or the level left
Anastrepha serpentina [30] = assay: Reduction of fertility in 7 days old adult of Anastrepha serpentina assessed as reduction of egg hatching at 5 mg/g treated with diet measured after 7 days oviposition; type: functional; parameters: scale not given: the % may be the effect or the level left
Anastrepha serpentina [31] = assay: Reduction of fertility in 7 days old adult of Anastrepha serpentina assessed as reduction of egg hatching at 1 mg/g treated with diet measured after 11 days oviposition; type: functional; parameters: scale not given: the % may be the effect or the level left
Anastrepha serpentina [32] = assay: Reduction of fertility in 7 days old adult of Anastrepha serpentina assessed as reduction of egg hatching at 1 mg/g treated with diet measured after 9 days oviposition; type: functional; parameters: scale not given: the % may be the effect or the level left
Anastrepha serpentina [33] = assay: Reduction of fertility in 7 days old adult of Anastrepha serpentina assessed as reduction of egg hatching at 1 mg/g treated with diet measured after 7 days oviposition; type: functional; parameters: scale not given: the % may be the effect or the level left
Anastrepha serpentina [34] = assay: Reduction of fertility in 7 days old adult of Anastrepha serpentina assessed as reduction of egg hatching at 1 mg/g treated with diet measured after 5 days oviposition; type: functional; parameters: scale not given: the % may be the effect or the level left
Anastrepha serpentina [35] = assay: Reduction of fertility in 7 days old adult of Anastrepha serpentina assessed as reduction of egg hatching at 0.5 mg/g treated with diet measured after 9 days oviposition; type: functional; parameters: scale not given: the % may be the effect or the level left
Anastrepha striata [36] = assay: Effect on fecundity in 7 days old adult male of Anastrepha striata at 30 mg/g treated with diet after 24 hr in presence of untreated adult female of Anastrepha striata; type: functional, organism-based
Anastrepha obliqua [37] = assay: Effect on fecundity in 7 days old adult male of Anastrepha obliqua at 30 mg/g treated with diet after 24 hr in presence of untreated adult female of Anastrepha obliqua; type: functional, organism-based
Anastrepha striata [38] = assay: Effect on fecundity in 7 days old adult female of Anastrepha striata at 30 mg/g treated with diet after 24 hr in presence of untreated adult male of Anastrepha striata; type: functional, organism-based
Anastrepha serpentina [39] = assay: Effect on fecundity in 7 days old adult female of Anastrepha serpentina at 30 mg/g treated with diet after 24 hr in presence of untreated adult male of Anastrepha serpentina; type: functional, organism-based
Anastrepha obliqua [40] = assay: Effect on fecundity in 7 days old adult female of Anastrepha obliqua at 30 mg/g treated with diet after 24 hr in presence of untreated adult male of Anastrepha obliqua; type: functional, organism-based

## O=C(NC(=O)c1c(F)cccc1F)Nc1cc(Cl)c(OC(F)(F)C(F)C(F)(F)F)cc1Cl (racemic) [LUFENURON]
Anastrepha ludens [1]
  Activity: inactive
Anastrepha ludens [2]
  Activity: 30.7%
Anastrepha obliqua [3]
  Activity: inactive
Anastrepha obliqua [4]
  Activity: 0%
Anastrepha obliqua [5]
  Activity: 0%
Anastrepha ludens [6]
  Activity: 12%
Anastrepha ludens [7]
  Activity: 10.7%
Anastrepha serpentina [8]
  Activity: 80.3%
Anastrepha serpentina [9]
  Activity: 98.9%
Anastrepha obliqua [10]
  Activity: 2%
Anastrepha obliqua [11]
  Activity: 0%
Anastrepha obliqua [12]
  Activity: 0.7%
Anastrepha obliqua [13]
  Activity: 1.3%
Anastrepha obliqua [14]
  Activity: 8.7%
Anastrepha obliqua [15]
  Activity: 4.7%
Anastrepha obliqua [16]
  Activity: 0%
Anastrepha obliqua [17]
  Activity: 8%
Anastrepha obliqua [18]
  Activity: 14.7%
Anastrepha ludens [19]
  Activity: 2.7%
Anastrepha striata [20]
  Activity: 8.7%
Anastrepha striata [21]
  Activity: 4.7%
Anastrepha striata [22]
  Activity: 1.3%
Anastrepha striata [23]
  Activity: 4.5%
Anastrepha striata [24]
  Activity: 6.7%
Anastrepha striata [25]
  Activity: 22.7%
Anastrepha striata [26]
  Activity: 80%
Anastrepha serpentina [27]
  Activity: 85.3%
Anastrepha serpentina [28]
  Activity: 18.3%
Anastrepha serpentina [29]
  Activity: 86.7%
Anastrepha serpentina [30]
  Activity: 96.7%
Anastrepha serpentina [31]
  Activity: 91.2%
Anastrepha serpentina [32]
  Activity: 95.6%
Anastrepha serpentina [33]
  Activity: 92.5%
Anastrepha serpentina [34]
  Activity: 71.8%
Anastrepha serpentina [35]
  Activity: 88%
Anastrepha striata [36]
  Activity: inactive
Anastrepha obliqua [37]
  Activity: inactive
Anastrepha striata [38]
  Activity: inactive
Anastrepha serpentina [39]
  Activity: inactive
Anastrepha obliqua [40]
  Activity: inactive
